# Experimental data published in patent US12702691B2, “Extract of an herbal composition as antimicrobial and/or antibiofilm agent” (ALPHANOSOS S.A.S., priority 2016, dated 2026).
# Assays:
# B-A17 = assay: Planktonic growth with extract and antibiotic relative to growth without both (Example 14); type: cell-based
# Procedure: (§1) Starting from the herbal composition, the corresponding water extracts (or processed samples) was prepared according to the previously described Method B using 2.06 g of the above herbal composition with 40 mL water with 100 g/L sucrose for water extraction and including the decantation step before filtration. In an independent water extract preparation without sucrose, it has been measured that 2.06 g/40 mL of herbal composition corresponds to 14.5 g/L as deduced from the weight of the lyophilized dry herbal extract.
# (§2) In Example 14 we calculate the growth of the bacteria in presence of antibiotic and/or herbal mix relative to the growth in the absence of both antibiotic and herbal mix extract.
# B-A21 = assay: as above; type: cell-based
# Procedure: as §1, §2
# [1] = M[20C]-576 0 μg/mL, antibiotic 3.91 μg/mL
# [2] = M[20C]-576 0 μg/mL, antibiotic 7.81 μg/mL
# [3] = M[20C]-576 0 μg/mL, antibiotic 15.63 μg/mL
# [4] = M[20C]-576 0 μg/mL, antibiotic 31.25 μg/mL
# [5] = M[20C]-576 0 μg/mL, antibiotic 62.50 μg/mL
# [6] = M[20C]-576 0 μg/mL, antibiotic 125 μg/mL
# [7] = M[20C]-576 0 μg/mL, antibiotic 250 μg/mL
# [8] = M[20C]-576 0 μg/mL, antibiotic 500 μg/mL
# [9] = M[20C]-576 0 μg/mL, antibiotic 1000 μg/mL
# [10] = M[20C]-576 0 μg/mL, antibiotic 2000 μg/mL
# [11] = M[20C]-576 0 μg/mL, antibiotic 4000 μg/mL
# [12] = M[20C]-576 90.6 μg/mL, antibiotic 3.91 μg/mL
# [13] = M[20C]-576 90.6 μg/mL, antibiotic 7.81 μg/mL
# [14] = M[20C]-576 90.6 μg/mL, antibiotic 15.63 μg/mL
# [15] = M[20C]-576 90.6 μg/mL, antibiotic 31.25 μg/mL
# [16] = M[20C]-576 90.6 μg/mL, antibiotic 62.50 μg/mL
# [17] = M[20C]-576 90.6 μg/mL, antibiotic 125 μg/mL
# [18] = M[20C]-576 90.6 μg/mL, antibiotic 250 μg/mL
# [19] = M[20C]-576 90.6 μg/mL, antibiotic 500 μg/mL
# [20] = M[20C]-576 90.6 μg/mL, antibiotic 1000 μg/mL
# [21] = M[20C]-576 90.6 μg/mL, antibiotic 2000 μg/mL
# [22] = M[20C]-576 90.6 μg/mL, antibiotic 4000 μg/mL
# [23] = M[20C]-576 181.3 μg/mL, antibiotic 3.91 μg/mL
# [24] = M[20C]-576 181.3 μg/mL, antibiotic 7.81 μg/mL
# [25] = M[20C]-576 181.3 μg/mL, antibiotic 15.63 μg/mL
# [26] = M[20C]-576 181.3 μg/mL, antibiotic 31.25 μg/mL
# [27] = M[20C]-576 181.3 μg/mL, antibiotic 62.50 μg/mL
# [28] = M[20C]-576 181.3 μg/mL, antibiotic 125 μg/mL
# [29] = M[20C]-576 181.3 μg/mL, antibiotic 250 μg/mL
# [30] = M[20C]-576 181.3 μg/mL, antibiotic 500 μg/mL
# [31] = M[20C]-576 181.3 μg/mL, antibiotic 1000 μg/mL
# [32] = M[20C]-576 181.3 μg/mL, antibiotic 2000 μg/mL
# [33] = M[20C]-576 181.3 μg/mL, antibiotic 4000 μg/mL
substance,measurement,setting,value
Penicillin,planktonic growth relative to the growth in the absence of both extract and antibiotic,B-A17; [1],137%
same,planktonic growth relative to the growth in the absence of both extract and antibiotic,B-A17; [2],138%
same,planktonic growth relative to the growth in the absence of both extract and antibiotic,B-A17; [3],3%
same,planktonic growth relative to the growth in the absence of both extract and antibiotic,B-A17; [4],1%
same,planktonic growth relative to the growth in the absence of both extract and antibiotic,B-A17; [5],0%
same,planktonic growth relative to the growth in the absence of both extract and antibiotic,B-A17; [6],−1%
same,planktonic growth relative to the growth in the absence of both extract and antibiotic,B-A17; [7],0%
same,planktonic growth relative to the growth in the absence of both extract and antibiotic,B-A17; [8],0%
same,planktonic growth relative to the growth in the absence of both extract and antibiotic,B-A17; [9],0%
same,planktonic growth relative to the growth in the absence of both extract and antibiotic,B-A17; [10],0%
same,planktonic growth relative to the growth in the absence of both extract and antibiotic,B-A17; [11],0%
same,planktonic growth relative to the growth in the absence of both extract and antibiotic,B-A17; [12],39%
same,planktonic growth relative to the growth in the absence of both extract and antibiotic,B-A17; [13],25%
same,planktonic growth relative to the growth in the absence of both extract and antibiotic,B-A17; [14],1%
same,planktonic growth relative to the growth in the absence of both extract and antibiotic,B-A17; [15],0%
same,planktonic growth relative to the growth in the absence of both extract and antibiotic,B-A17; [16],0%
same,planktonic growth relative to the growth in the absence of both extract and antibiotic,B-A17; [17],0%
same,planktonic growth relative to the growth in the absence of both extract and antibiotic,B-A17; [18],0%
same,planktonic growth relative to the growth in the absence of both extract and antibiotic,B-A17; [19],0%
same,planktonic growth relative to the growth in the absence of both extract and antibiotic,B-A17; [20],0%
same,planktonic growth relative to the growth in the absence of both extract and antibiotic,B-A17; [21],0%
same,planktonic growth relative to the growth in the absence of both extract and antibiotic,B-A17; [22],0%
same,planktonic growth relative to the growth in the absence of both extract and antibiotic,B-A17; [23],23%
same,planktonic growth relative to the growth in the absence of both extract and antibiotic,B-A17; [24],5%
same,planktonic growth relative to the growth in the absence of both extract and antibiotic,B-A17; [25],−3%
same,planktonic growth relative to the growth in the absence of both extract and antibiotic,B-A17; [26],−3%
same,planktonic growth relative to the growth in the absence of both extract and antibiotic,B-A17; [27],−3%
same,planktonic growth relative to the growth in the absence of both extract and antibiotic,B-A17; [28],−3%
same,planktonic growth relative to the growth in the absence of both extract and antibiotic,B-A17; [29],−2%
same,planktonic growth relative to the growth in the absence of both extract and antibiotic,B-A17; [30],−3%
same,planktonic growth relative to the growth in the absence of both extract and antibiotic,B-A17; [31],−4%
same,planktonic growth relative to the growth in the absence of both extract and antibiotic,B-A17; [32],−4%
same,planktonic growth relative to the growth in the absence of both extract and antibiotic,B-A17; [33],−2%
same,planktonic growth relative to the growth in the absence of both extract and antibiotic,B-A21; [1],135%
same,planktonic growth relative to the growth in the absence of both extract and antibiotic,B-A21; [2],116%
same,planktonic growth relative to the growth in the absence of both extract and antibiotic,B-A21; [3],115%
same,planktonic growth relative to the growth in the absence of both extract and antibiotic,B-A21; [4],113%
same,planktonic growth relative to the growth in the absence of both extract and antibiotic,B-A21; [5],108%
same,planktonic growth relative to the growth in the absence of both extract and antibiotic,B-A21; [6],106%
same,planktonic growth relative to the growth in the absence of both extract and antibiotic,B-A21; [7],101%
same,planktonic growth relative to the growth in the absence of both extract and antibiotic,B-A21; [8],0%
same,planktonic growth relative to the growth in the absence of both extract and antibiotic,B-A21; [9],0%
same,planktonic growth relative to the growth in the absence of both extract and antibiotic,B-A21; [10],0%
same,planktonic growth relative to the growth in the absence of both extract and antibiotic,B-A21; [11],0%
same,planktonic growth relative to the growth in the absence of both extract and antibiotic,B-A21; [12],104%
same,planktonic growth relative to the growth in the absence of both extract and antibiotic,B-A21; [13],83%
same,planktonic growth relative to the growth in the absence of both extract and antibiotic,B-A21; [14],83%
same,planktonic growth relative to the growth in the absence of both extract and antibiotic,B-A21; [15],84%
same,planktonic growth relative to the growth in the absence of both extract and antibiotic,B-A21; [16],80%
same,planktonic growth relative to the growth in the absence of both extract and antibiotic,B-A21; [17],74%
same,planktonic growth relative to the growth in the absence of both extract and antibiotic,B-A21; [18],26%
same,planktonic growth relative to the growth in the absence of both extract and antibiotic,B-A21; [19],0%
same,planktonic growth relative to the growth in the absence of both extract and antibiotic,B-A21; [20],0%
same,planktonic growth relative to the growth in the absence of both extract and antibiotic,B-A21; [21],0%
same,planktonic growth relative to the growth in the absence of both extract and antibiotic,B-A21; [22],0%
same,planktonic growth relative to the growth in the absence of both extract and antibiotic,B-A21; [23],62%
same,planktonic growth relative to the growth in the absence of both extract and antibiotic,B-A21; [24],43%
same,planktonic growth relative to the growth in the absence of both extract and antibiotic,B-A21; [25],70%
same,planktonic growth relative to the growth in the absence of both extract and antibiotic,B-A21; [26],61%
same,planktonic growth relative to the growth in the absence of both extract and antibiotic,B-A21; [27],60%
same,planktonic growth relative to the growth in the absence of both extract and antibiotic,B-A21; [28],45%
same,planktonic growth relative to the growth in the absence of both extract and antibiotic,B-A21; [29],−3%
same,planktonic growth relative to the growth in the absence of both extract and antibiotic,B-A21; [30],−3%
same,planktonic growth relative to the growth in the absence of both extract and antibiotic,B-A21; [31],−3%
same,planktonic growth relative to the growth in the absence of both extract and antibiotic,B-A21; [32],−3%
same,planktonic growth relative to the growth in the absence of both extract and antibiotic,B-A21; [33],−3%
